Assay results published in the NIST ThermoML archive (doi:10.1021/je5009679).

Settings: Liquid; for viscosity: Concentric cylinders viscometry

CC(=O)[O-].CCCCn1cc[n+](C)c1 [1-butyl-3-methylimidazolium acetate]
101.33 kPa
Settings	viscosity [mPa·s]
293.15 K	592.3
303.15 K	274.1
313.15 K	142.4
323.15 K	81.88
333.15 K	51.11
343.15 K	33.65
353.15 K	23.51
363.15 K	17.09
373.15 K	12.93

Settings	mass density [kg/m3]
293.15 K, 101.33 kPa, Vibrating tube method	1053.8
303.15 K, 101.33 kPa, Vibrating tube method	1047.4
311.4 K, 10000 kPa, Bellows volumetry	1046.7
311.4 K, 20000 kPa, Bellows volumetry	1050.8
311.4 K, 30000 kPa, Bellows volumetry	1054.8
311.4 K, 40000 kPa, Bellows volumetry	1058.6
311.4 K, 50000 kPa, Bellows volumetry	1062.3
311.4 K, 60000 kPa, Bellows volumetry	1065.8
311.4 K, 70000 kPa, Bellows volumetry	1069.3
311.4 K, 80000 kPa, Bellows volumetry	1072.7
311.4 K, 90000 kPa, Bellows volumetry	1076
311.4 K, 100000 kPa, Bellows volumetry	1079
311.4 K, 110000 kPa, Bellows volumetry	1082.1
311.4 K, 120000 kPa, Bellows volumetry	1085.1
311.4 K, 130000 kPa, Bellows volumetry	1088.1
311.4 K, 140000 kPa, Bellows volumetry	1090.9
311.4 K, 150000 kPa, Bellows volumetry	1093.7
311.4 K, 160000 kPa, Bellows volumetry	1096.5
311.4 K, 170000 kPa, Bellows volumetry	1099.1
311.4 K, 180000 kPa, Bellows volumetry	1101.9
311.4 K, 190000 kPa, Bellows volumetry	1104.5
311.4 K, 200000 kPa, Bellows volumetry	1107.1
313.15 K, 101.33 kPa, Vibrating tube method	1041.4
323.15 K, 101.33 kPa, Vibrating tube method	1035.4
331.1 K, 10000 kPa, Bellows volumetry	1034.7
331.1 K, 20000 kPa, Bellows volumetry	1039.1
331.1 K, 30000 kPa, Bellows volumetry	1043.3
331.1 K, 40000 kPa, Bellows volumetry	1047.3
331.1 K, 50000 kPa, Bellows volumetry	1051.2
331.1 K, 60000 kPa, Bellows volumetry	1054.9
331.1 K, 70000 kPa, Bellows volumetry	1058.5
331.1 K, 80000 kPa, Bellows volumetry	1062.1
331.1 K, 90000 kPa, Bellows volumetry	1065.2
331.1 K, 100000 kPa, Bellows volumetry	1068.7
331.1 K, 110000 kPa, Bellows volumetry	1071.9
331.1 K, 120000 kPa, Bellows volumetry	1075
331.1 K, 130000 kPa, Bellows volumetry	1078.2
331.1 K, 140000 kPa, Bellows volumetry	1081.1
331.1 K, 150000 kPa, Bellows volumetry	1084
331.1 K, 160000 kPa, Bellows volumetry	1086.8
331.1 K, 170000 kPa, Bellows volumetry	1089.6
331.1 K, 180000 kPa, Bellows volumetry	1092.4
331.1 K, 190000 kPa, Bellows volumetry	1095.1
331.1 K, 200000 kPa, Bellows volumetry	1097.7
333.15 K, 101.33 kPa, Vibrating tube method	1029.5
343.15 K, 101.33 kPa, Vibrating tube method	1023.7
351.3 K, 10000 kPa, Bellows volumetry	1023.2
351.3 K, 20000 kPa, Bellows volumetry	1027.7
351.3 K, 30000 kPa, Bellows volumetry	1032.1
351.3 K, 40000 kPa, Bellows volumetry	1036.4
351.3 K, 50000 kPa, Bellows volumetry	1040.4
351.3 K, 60000 kPa, Bellows volumetry	1044.3
351.3 K, 70000 kPa, Bellows volumetry	1048
351.3 K, 80000 kPa, Bellows volumetry	1051.6
351.3 K, 90000 kPa, Bellows volumetry	1055
351.3 K, 100000 kPa, Bellows volumetry	1058.4
351.3 K, 110000 kPa, Bellows volumetry	1061.7
351.3 K, 120000 kPa, Bellows volumetry	1065
351.3 K, 130000 kPa, Bellows volumetry	1068.1
351.3 K, 140000 kPa, Bellows volumetry	1071.2
351.3 K, 150000 kPa, Bellows volumetry	1074.3
351.3 K, 160000 kPa, Bellows volumetry	1077.3
351.3 K, 170000 kPa, Bellows volumetry	1080.2
351.3 K, 180000 kPa, Bellows volumetry	1083
351.3 K, 190000 kPa, Bellows volumetry	1086
351.3 K, 200000 kPa, Bellows volumetry	1088.5
353.15 K, 101.33 kPa, Vibrating tube method	1017.9
363.15 K, 101.33 kPa, Vibrating tube method	1012
371.3 K, 10000 kPa, Bellows volumetry	1011.7
371.3 K, 20000 kPa, Bellows volumetry	1016.5
371.3 K, 30000 kPa, Bellows volumetry	1021.2
371.3 K, 40000 kPa, Bellows volumetry	1025.5
371.3 K, 50000 kPa, Bellows volumetry	1029.6
371.3 K, 60000 kPa, Bellows volumetry	1033.8
371.3 K, 70000 kPa, Bellows volumetry	1037.7
371.3 K, 80000 kPa, Bellows volumetry	1041.5
371.3 K, 90000 kPa, Bellows volumetry	1045
371.3 K, 100000 kPa, Bellows volumetry	1048.5
371.3 K, 110000 kPa, Bellows volumetry	1051.9
371.3 K, 120000 kPa, Bellows volumetry	1055.3
371.3 K, 130000 kPa, Bellows volumetry	1058.6
371.3 K, 140000 kPa, Bellows volumetry	1061.8
371.3 K, 150000 kPa, Bellows volumetry	1064.9
371.3 K, 160000 kPa, Bellows volumetry	1067.8
371.3 K, 170000 kPa, Bellows volumetry	1071
371.3 K, 180000 kPa, Bellows volumetry	1073.9
371.3 K, 190000 kPa, Bellows volumetry	1076.8
371.3 K, 200000 kPa, Bellows volumetry	1079.5
373.15 K, 101.33 kPa, Vibrating tube method	1006.1
